Values of other authors in patent US20120121700A1, “PHARMACEUTICAL FORMULATIONS COMPRISING VALGANCICLOVIR” (priority 2010, published 2012).

Conditions: oral administration; background statement taken from U.S. Pat. No. 6,083,953

Row | SMILES | bioavailability when administered orally
1 | CC(C)[C@H](N)C(=O)OCC(CO)OCn1cnc2c(=O)[nH]c(N)nc21.Cl (stereo partly drawn) [Valganciclovir hydrochloride, L-valine, 2-[(2-amino-1,6-dihydro-6-oxo-9H-purin-9-yl)methoxy]-3-hydroxypropyl ester, monohydrochloride] | better bioavailability than ganciclovir given orally
2 | Nc1nc(O)c2ncn(COC(CO)CO)c2n1 [gancilcovir, ganciclovir] | poor
